According to publication PMC9959553, “Promising Antifungal Molecules against Mucormycosis Agents Identified from Pandemic Response Box®: In Vitro and In Silico Analyses” (Journal of Fungi, 2023):

These compounds were tested on R. oryzae UCP1295 (assay: Screening of the Pandemic Response Box library at 5 µM). Settings: 48 h, Table S1, mean of the four values.
Type: cell-based, Rhizopus oryzae
In short: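 Compounds at 5 μM in RPMI 1640 with 2% glucose and MOPS (0.165 mol/L, pH 7.2), with conidia at 2 × 10^5/mL, incubated 48 h at 37 °C in 5% CO2. Growth read by OD at 600 nm; hits defined as ≥60% inhibition. Posaconazole (5 μM) and 1% DMSO as controls.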

Question: How did the “% of growth inhibition, Mean” value turn out when CCOc1ccc(/C=N/NC(=O)C2CC2c2ccc(C(C)(C)C)cc2)cc1OCC (centres unmarked) [MMV1634398] was run?
Answer: 4.7%

Question: For Cc1nc2ccc(Oc3ccccc3)cc2c2c1CCN2CCc1ccccc1 [MMV1634399], which “% of growth inhibition, Mean” value is on record?
Answer: -16.3%

Question: With Cc1ccc(C)c(OCCCCCCN2C[C@H](O)[C@@H](O)[C@H](O)[C@H]2CO)c1 [MMV1634401] as the compound, how does the “% of growth inhibition, Mean” value read?
Answer: 10.8%

Question: For NC(N)=NCCCCC(=O)Nc1cc(C(F)(F)F)cc(NC(=O)c2cc(C(=O)Nc3cc(C(F)(F)F)cc(NC(=O)CCCCN=C(N)N)c3O[C@@H]3CCNC3)ncn2)c1O[C@@H]1CCNC1 [MMV1634402], which “% of growth inhibition, Mean” value is on record?
Answer: -4.8%

Question: How did the “% of growth inhibition, Mean” value turn out when CS(=O)(=O)c1ccc(Oc2ccc(Cl)cc2)cc1 [MMV1634404] was run?
Answer: 4.1%

Question: O=C(/C(=C/c1ccc(Cl)cc1Cl)n1ccnc1)c1ccc(Cl)cc1 [MMV1634491] was tested. Which “% of growth inhibition, Mean” value did it give?
Answer: -15.1%

Question: With Clc1cc(Cl)c2c(c1)CCc1ccccc1C2n1ccnc1 (centres unmarked) [MMV1634492] as the compound, how does the “% of growth inhibition, Mean” value read?
Answer: -30.6%

Question: With Cc1ccc(Oc2ccccc2-c2csc(N=C3NCCCN3)n2)c(C)c1 [MMV1634493] as the compound, how does the “% of growth inhibition, Mean” value read?
Answer: -30.7%

Question: With CNCC(=O)OCc1cccnc1N(C)C(=O)OC(C)[n+]1cnn(C[C@](O)(c2cc(F)ccc2F)[C@@H](C)c2nc(-c3ccc(C#N)cc3)cs2)c1 (some centres unmarked) [MMV1634494] as the compound, how does the “% of growth inhibition, Mean” value read?
Answer: -14.8%

Question: How did the “% of growth inhibition, Mean” value turn out when CCc1cc(CCCOc2c(C)cc(-c3noc(C(F)(F)F)n3)cc2C)on1 [MMV1634556] was run?
Answer: 10.0%

Question: How did the “% of growth inhibition, Mean” value turn out when COc1cc(C2C3=C(CC(C)(C)CC3=O)Nc3ccccc3N2C(C)=O)ccc1OCc1ccccc1 (centres unmarked) [MMV1634557] was run?
Answer: -15.9%

Question: How did the “% of growth inhibition, Mean” value turn out when O=[N+]([O-])/C(Br)=C/c1ccc(Br)o1 [MMV1645051] was run?
Answer: -39.6%

Question: How did the “% of growth inhibition, Mean” value turn out when Nc1nc(O)c(Br)c(-c2cccc(Cl)c2)n1 [MMV1645152] was run?
Answer: 4.7%

Question: For CCc1nc2ccccn2c1C(=O)NCc1ccccc1 [MMV1663457], which “% of growth inhibition, Mean” value is on record?
Answer: -0.4%

Question: With O=C(NCc1ccc(F)cc1)c1c(O)c2ncccc2[nH]c1=O [MMV1782097] as the compound, how does the “% of growth inhibition, Mean” value read?
Answer: 3.9%

Question: Which “% of growth inhibition, Mean” value does the source give for CCCCN1C[C@H](O)[C@@H](O)[C@H](O)[C@H]1CO [MMV1782098] here?
Answer: -8.6%

Question: Which “% of growth inhibition, Mean” value does the source give for COc1cc(C(C)(C)CCCC(C)C)cc(OC)c1OC [MMV1782102] here?
Answer: -11.2%

Question: For COCCn1cnc2c(O)nc(Nc3ccccc3)nc21 [MMV1782103], which “% of growth inhibition, Mean” value is on record?
Answer: -15.7%

Question: With NC(=O)c1nccn([C@@H]2O[C@H](CO)[C@@H](O)[C@H]2O)c1=O [MMV1782104] as the compound, how does the “% of growth inhibition, Mean” value read?
Answer: -4.9%

Question: O=c1oc2ccc(Br)cc2cc1CSc1ncc[nH]1 [MMV1782105] was tested. Which “% of growth inhibition, Mean” value did it give?
Answer: -13.4%

Question: Which “% of growth inhibition, Mean” value does the source give for CCc1cc(CCC(=O)Nc2ccccc2O)c(=O)[nH]c1C [MMV1782106] here?
Answer: -2.0%

Question: Which “% of growth inhibition, Mean” value does the source give for O=c1[nH]c(=O)n(Cc2cccc(Oc3ccccc3)c2)cc1Nc1ccccc1 [MMV1782107] here?
Answer: -3.3%

Question: With CCCCc1ccc(S(=O)(=O)Nc2cc(C)on2)cc1 [MMV1782108] as the compound, how does the “% of growth inhibition, Mean” value read?
Answer: -13.7%

Question: O=C(N[C@H](Cc1cccc2ccccc12)C(=O)NCCc1c[nH]cn1)C1Cc2ccccc2C1 [MMV1782109] was tested. Which “% of growth inhibition, Mean” value did it give?
Answer: -14.0%

Question: O=C(CCc1ccc2c(c1)OCO2)NCc1ccc(-c2ccccc2F)cc1 [MMV1782110] was tested. Which “% of growth inhibition, Mean” value did it give?
Answer: -2.8%

Question: How did the “% of growth inhibition, Mean” value turn out when CC(C)C(=O)N[C@H]1[C@H]([C@H](O)[C@H](O)CO)OC(C(=O)O)=C[C@@H]1N=[N+]=[N-] [MMV1782111] was run?
Answer: -12.9%

Question: For CCOC(=O)/C=C/[C@H](C[C@@H]1CCNC1=O)NC(=O)[C@H](CC)n1cccc(NC(=O)c2cc(C)on2)c1=O [MMV1782112], which “% of growth inhibition, Mean” value is on record?
Answer: -11.8%

Question: How did the “% of growth inhibition, Mean” value turn out when CCCC1(C2CC2)c2cc(Cl)ccc2NC(=O)N1C (centres unmarked) [MMV1782113] was run?
Answer: -5.2%

Question: O=C(NN1C(=O)[C@@H]2C3C=CC([C@H]4C[C@@H]34)[C@@H]2C1=O)c1ccc(C(F)(F)F)cc1 [MMV1782114] was tested. Which “% of growth inhibition, Mean” value did it give?
Answer: -5.7%

Question: COc1ccc2sc3c(c2c1)NC(C)CNC3=O (centres unmarked) [MMV1782115] was tested. Which “% of growth inhibition, Mean” value did it give?
Answer: -2.6%

Question: With O=C(Nc1nnc(-c2ccc(Cl)cc2)o1)c1ccc(F)cc1 [MMV1782140] as the compound, how does the “% of growth inhibition, Mean” value read?
Answer: -4.1%

Question: With CN1C(=O)C(c2ccccc2)C(=O)N(c2ccccc2)c2cc(C(F)(F)F)ccc21 (centres unmarked) [MMV1782208] as the compound, how does the “% of growth inhibition, Mean” value read?
Answer: -7.5%

Question: Which “% of growth inhibition, Mean” value does the source give for COc1ccc(C(C)(C)C)cc1NC(=O)C(=O)c1ccc(OCCN2CCOCC2)c2ccccc12 [MMV1782209] here?
Answer: -5.8%

Question: Nc1nc2c(ncn2/C=C2/CC2(CO)CO)c(=O)[nH]1 [MMV1782210] was tested. Which “% of growth inhibition, Mean” value did it give?
Answer: -16.4%

Question: Which “% of growth inhibition, Mean” value does the source give for C[C@@H](NC(=O)c1cccc(-c2cnc(-c3cc4ccccc4cn3)[nH]2)c1)c1ccc(F)cc1 [MMV1782211] here?
Answer: 32.8%

Question: How did the “% of growth inhibition, Mean” value turn out when CC(C)(C)c1ccc(C(=O)NC(=O)N2CCCc3ccccc32)cc1 [MMV1782212] was run?
Answer: -4.9%

Question: With O=C(CSc1nnc(Br)n1-c1ccc(C2CC2)c2ccccc12)Nc1ccc(C(=O)O)cc1Cl [MMV1782213] as the compound, how does the “% of growth inhibition, Mean” value read?
Answer: -4.3%

Question: Which “% of growth inhibition, Mean” value does the source give for C=CCN(C(=O)OCc1ccc([N+](=O)[O-])cc1)C1CCN(CC[C@](C)(CN(C)S(=O)(=O)c2ccccc2)c2ccccc2)CC1 [MMV1782214] here?
Answer: 14.4%

Question: How did the “% of growth inhibition, Mean” value turn out when O=P(O)(O)C(CCCc1cccc(Oc2ccccc2)c1)S(=O)(=O)O (centres unmarked) [MMV1782215] was run?
Answer: -6.1%

Question: For CCCNc1ccc(S(=O)(=O)Nc2cc(C)on2)cc1 [MMV1782216], which “% of growth inhibition, Mean” value is on record?
Answer: -18.8%

Question: How did the “% of growth inhibition, Mean” value turn out when Cc1cc(NS(=O)(=O)c2ccc(-c3ccc(F)cc3F)cc2)no1 [MMV1782217] was run?
Answer: -29.1%

Question: Which “% of growth inhibition, Mean” value does the source give for O=C(NC(=O)N1CCCc2ccccc21)c1ccc(Cl)cc1Cl [MMV1782218] here?
Answer: -21.0%

Question: With CC(C)CCN1C(=O)C(C2=NS(=O)(=O)c3cc(NS(C)(=O)=O)ccc3N2)=C(O)[C@@H]2[C@H]3CC[C@H](C3)[C@@H]21 [MMV1782220] as the compound, how does the “% of growth inhibition, Mean” value read?
Answer: 6.0%

Question: Which “% of growth inhibition, Mean” value does the source give for C[C@H](c1cccc2ccccc12)N(C)Cc1ccccc1 [MMV1782221] here?
Answer: -14.5%

Question: With CN1c2ccc(Cl)cc2N(c2ccccc2)C(=O)c2cn(Cc3ccc(CN4CCOCC4)cc3)nc21 [MMV1782222] as the compound, how does the “% of growth inhibition, Mean” value read?
Answer: 3.4%

Question: CN(C)c1[nH]c(=O)ncc1F [MMV1782223] was tested. Which “% of growth inhibition, Mean” value did it give?
Answer: -26.3%

Question: N#C/C(=C1/SC[C@@H](c2ccc(Cl)cc2Cl)S1)n1ccnc1 [MMV1782224] was tested. Which “% of growth inhibition, Mean” value did it give?
Answer: -14.5%

Question: O=C(Nc1[nH]c(=O)ncc1F)c1ccccc1 [MMV1782225] was tested. Which “% of growth inhibition, Mean” value did it give?
Answer: -27.6%

Question: For OB1OCc2c1ccc(Cl)c2F [MMV1782226], which “% of growth inhibition, Mean” value is on record?
Answer: -20.0%

Question: O=C(NNC(=S)Nc1ccc(Cl)cc1)c1ccncc1 [MMV1782227] was tested. Which “% of growth inhibition, Mean” value did it give?
Answer: -24.0%

Question: With Cc1cc(CCOc2c(C)cc(-c3nnn(C)n3)cc2C)on1 [MMV1782349] as the compound, how does the “% of growth inhibition, Mean” value read?
Answer: -3.0%

Question: How did the “% of growth inhibition, Mean” value turn out when CC(C)Oc1ccc(-n2cnc3cc(/C=C\c4ccc(C(C)(C)O)cc4)ccc32)cc1 [MMV1782350] was run?
Answer: 26.5%

Question: Which “% of growth inhibition, Mean” value does the source give for O=C(NC(=O)N1CCCc2ccccc21)c1cccc(Cl)c1 [MMV1782351] here?
Answer: -17.9%

Question: Which “% of growth inhibition, Mean” value does the source give for O=C(O)COc1cccc2c1CC[C@](O)(COC(=O)N(c1ccccc1)c1ccccc1)C2 [MMV1782352] here?
Answer: -13.6%

Question: CC(C)(C)NC(=O)[C@@H]1CN(Cc2cnc3occc3c2)CCN1C[C@@H](O)C[C@@H](Cc1ccccc1)C(=O)N[C@H]1c2ccccc2C[C@H]1O [MMV1782353] was tested. Which “% of growth inhibition, Mean” value did it give?
Answer: -11.2%

Question: How did the “% of growth inhibition, Mean” value turn out when Cc1cc(-c2ccccc2)c(C(=O)C(=O)Nc2ccc(N3CCN(c4ncc(F)cn4)CC3)cc2)n1C [MMV1782354] was run?
Answer: -38.2%

Question: With Nc1nc2c(Cc3cccnc3)c[nH]c2c(=O)[nH]1 [MMV1782355] as the compound, how does the “% of growth inhibition, Mean” value read?
Answer: -12.7%

Question: For CN(O)C(=O)c1cc2c(CN3CCC[C@H]3C(N)=O)cn(Cc3ccc(F)cc3)c2cn1 [MMV1782386], which “% of growth inhibition, Mean” value is on record?
Answer: -4.5%

Question: COC(=O)Nc1nc2c(C)cccc2[nH]1 [MMV1782387] was tested. Which “% of growth inhibition, Mean” value did it give?
Answer: -30.6%

Question: With CNc1nc(=O)[nH]cc1F [MMV1782388] as the compound, how does the “% of growth inhibition, Mean” value read?
Answer: -27.5%

Question: With Cc1cc(C)n(O)c(=O)c1 [MMV1782389] as the compound, how does the “% of growth inhibition, Mean” value read?
Answer: -20.7%

Question: With Cc1cc(C)n2nc(C(=O)NS(=O)(=O)c3c(C)cccc3OC(F)(F)F)nc2n1 [MMV1782402] as the compound, how does the “% of growth inhibition, Mean” value read?
Answer: -19.8%

Question: Which “% of growth inhibition, Mean” value does the source give for CCNC(=O)Nc1cn2c(-c3ncc(CC)cn3)cc(-c3cccnc3)cc2n1 [MMV1782403] here?
Answer: -42.7%

Question: For O=S(=O)(NCB(O)O)c1ccc(-c2nnn[nH]2)cc1C(F)(F)F [MMV1782411], which “% of growth inhibition, Mean” value is on record?
Answer: -7.7%

Question: Which “% of growth inhibition, Mean” value does the source give for NC(=O)C(c1ccccc1)(c1ccccc1)[C@H]1CCCN(CCc2ccc3c(c2)CCO3)C1 [MMV1782412] here?
Answer: -1.5%
